{
  "source": "patent US20240226110A1",
  "about": "“5-HT2C AGONIST FOR USE IN TREATING CONDITIONS ASSOCIATED WITH CENTRAL HYPOVENTILATION” (APNIMED, INC. (DELAWARE), priority 2021, published 2024)",
  "key": {"[1]": {"target": "T1, serotonin (5-HT) 2C receptor (Rattus norvegicus, UniProt P08909)", "T1 construct": "increased genioglossus activity and reduced upper airway collapsibility in anesthetized rats; from tissue; host or cells: anesthetized rats (in vivo; hypoglossal motor nucleus / brainstem)", "T1 sequence (P08909 33-460)": "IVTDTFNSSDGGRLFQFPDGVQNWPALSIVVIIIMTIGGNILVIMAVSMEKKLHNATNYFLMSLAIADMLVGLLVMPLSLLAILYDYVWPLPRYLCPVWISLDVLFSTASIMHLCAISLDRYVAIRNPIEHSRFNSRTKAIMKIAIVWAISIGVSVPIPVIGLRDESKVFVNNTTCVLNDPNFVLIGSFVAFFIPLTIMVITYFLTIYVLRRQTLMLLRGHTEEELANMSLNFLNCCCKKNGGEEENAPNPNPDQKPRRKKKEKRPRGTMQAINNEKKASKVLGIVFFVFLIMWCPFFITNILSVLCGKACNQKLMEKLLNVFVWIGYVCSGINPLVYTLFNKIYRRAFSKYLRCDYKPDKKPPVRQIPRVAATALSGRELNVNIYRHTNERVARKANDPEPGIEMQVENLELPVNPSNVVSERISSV", "details": "anesthetized rats; cited from earlier work"}, "OSA patients": {"system": "OSA patients", "experiment": "Crossover pilot trial, lorcaserin 15 mg or placebo before bedtime for one night; polysomnography with pneumotach and oronasal mask", "assay_type": "in vivo, human", "details": "single patient, hypopneas present in both conditions", "protocol": "In a crossover pilot trial including 6 OSA patients, the patients were administered in random order lorcaserin 15 mg or placebo before bedtime for one night.\nPatients were outfitted with the usual polysomnography equipment plus a pneumotach and oronasal mask for accurate ventilation measurements. The effect of lorcaserin on several ventilatory parameters reflecting the upper airway collapsibility and muscle activity were measured using validated algorithms."}},
  "data": [
    {"smiles": "COc1cc(CC(C)N)c(OC)cc1I", "note": "(stereo not drawn) [DOI, 2,5-dimethoxy-4-iodoaminophentamine]", "values": [
      {"measurement": "genioglossus activity", "setting": "[1]", "result": "increased"},
      {"measurement": "upper airway collapsibility", "setting": "[1]", "result": "reduced"}
    ]},
    {"smiles": "C[C@H]1CNCCc2ccc(Cl)cc21", "note": "[lorcaserin, (1R)-8-chloro-1-methyl-2,3,4,5-tetrahydro-1H-3-benzazepine]", "values": [
      {"measurement": "ventilation during NREM sleep of a patient, lorcaserin night vs placebo (FIG. 2)", "setting": "OSA patients", "result": "increased substantially"}
    ]}
  ]
}
